Source: US20230142274A1 (SIMCERE PHARMACEUTICAL CO., LTD., priority 2020, published 2023)
Read-outs that look alike come from different tables or passages of the source.

What was measured:
WI-38 cells = test: Inhibition of human WI-38 embryonic lung cell proliferation (Cell-Titer Glo); format: cell-based; settings: 3 days incubation, read-out: Anti-Proliferative Activity Against WI-38 cells IC50
Experimental: (§1) Introduction of the experimental principle: After the RAD51 inhibitor to be tested was co-incubated with human embryonic lung cells for a period of time, the influence of the test compound on cell proliferation was measured by a method for counting cell proliferation based on the quantitative measurement of intracellular ATP content.
Materials and Cells: WI-38 cells were purchased from ATCC; fetal bovine serum, 1640 medium and penicillin-streptomycin were purchased from Gibco Inc. (U.S.), 96-well plates were purchased from Corning Inc. (U.S.), and Cell-Titer Glo reagent was purchased from Promega Corporation (U.S.).
Cell culture: WI-38 cells were cultured in an EMEM culture medium containing 10% fetal bovine serum and 1% penicillin-streptomycin at 37° C. in an atmosphere containing 5% CO2. Cells in logarithmic growth phase could be used for experiments.
(§2) Assay of cell proliferation and viability: Cell-Titer Glo reagent was used to measure the inhibitory activities of the compounds on the proliferation of WI-38 cell strain. The concentration of cells was adjusted, and the cells were seeded in a 96-well plate and cultured at 37° C. in an atmosphere containing 5% CO2 for 24 hours. The powder of the compound was dissolved in 100% DMSO to form a 10 mM solution. 10 μl of the solution of the compound was aspirated and transferred into a 96-well compound plate containing 20 μl of DMSO solution in each well for 3-fold dilution and was then formulated to 10 serial dilutions. Thereafter, 2 μl of the solution of the compound was aspirated from the corresponding well and added correspondingly into a 96-well intermediate compound dilution plate containing 78 μl of complete culture medium in each well. The resultant was mixed well, and the plate was centrifuged at 1000 rpm for 1 minute. Finally, 10 μl of the solution of the compound was aspirated from the corresponding well of the 96-well intermediate compound dilution plate, and transferred into the corresponding well of the cell culture plate containing 90 μl of complete culture medium. The final concentration of DMSO was 0.25%. After the addition of the compound, the cells were continued to be incubated for 3 days at 37° C. in an atmosphere containing 5% CO2. Cell-Titer Glo reagent was added to measure cell viability.
% Compound inhibition was calculated and IC50 of the compound was fitted;
(§3) % Compound inhibition=1−100%×(Signal−Bottom)/(Top−Bottom)

Daudi cells = test: Inhibition of human Daudi lymphoma cell proliferation (Cell-Titer Glo); format: cell-based; settings: 3 days incubation, read-out: Anti-Proliferative Activity Against Daudi cells IC50
Experimental: as §1, with “cancer” for “human embryonic lung”
Materials and Cells: Daudi cells were purchased from ATCC; fetal bovine serum, 1640 medium and penicillin-streptomycin were purchased from Gibco Inc. (U.S.), 96-well plates were purchased from Corning Inc. (U.S.), and Cell-Titer Glo reagent was purchased from Promega Corporation (U.S.).
Cell culture: Daudi cells were cultured in 1640 culture medium containing 10% fetal bovine serum and 1% penicillin-streptomycin at 37° C. in an atmosphere containing 5% CO2. Cells in logarithmic growth phase could be used for experiments.
as §2, with “of Daudi” for “of WI-38”, “solution” for “solution in each well”, “formulated into” for “formulated to”
% Compound inhibition was calculated and IC50 of the compound was filled;
as §3

IC50 (Daudi cells; Homo sapiens, 72 h) [nM]	IC50 (Daudi cells) [nM]	SMILES	IC50 (WI-38 cells; Homo sapiens, 72 h) [nM]	IC50 (WI-38 cells) [nM]
410	–	CC(C)OC(=O)NC1CCC(c2ncc(-c3ccc(NC(=O)C4Cc5ccccc5CN4)cc3S(=O)(=O)NC(C)(C)C)s2)CC1 (stereo not drawn) [Example 13, isopropyl trans-N-[4-[5-[2-(tert-butylsulfamoyl)-4-(1,2,3,4-tetrahydroisoquinoline-3-carbonylamino)phenyl]thiazol-2-yl]cyclohexyl]carbamate]	> 25000	–
450	–	CC(C)OC(=O)NC1CCC(c2ncc(-c3ccc(N/C(=N/C#N)NCc4ccccc4)cc3S(=O)(=O)NC(C)(C)C)s2)CC1 (stereo not drawn) [Example 14, isopropyl trans-N-[4-[5-[4-[[(E)-N-benzyl-N′-cyanocarbamoylamino]amino]-2-(tert-butylsulfamoyl)phenyl]thiazol-2-yl]cyclohexyl]carbamate]	> 25000	–
280	–	CC(C)OC(=O)N[C@H]1CC[C@H](c2ncc(-c3ccc(NC(=O)COc4ccccc4)cc3S(=O)(=O)NC(C)(C)C)s2)CC1 [Example 15, isopropyl trans-N-[4-[5-[2-(tert-butylsulfamoyl)-4-[(2-phenoxyacetyl)amino]phenyl]thiazol-2-yl]cyclohexyl]carbamate]	> 25000	–
110	–	CC(C)OC(=O)N[C@H]1CC[C@H](c2ncc(-c3ccc(NC(=O)NC4(c5ccccc5)CC4)cc3S(=O)(=O)NC(C)(C)C)s2)CC1 [Example 17, isopropyl trans-N-[4-[5-[2-(tert-butylsulfamoyl)-4-[(1-phenylcyclopropyl)carbamoylamino]phenyl]thiazol-2-yl]cyclohexyl]carbamate]	> 25000	–
960	–	CC(C)OC(=O)Nc1ccc(-c2cnc([C@H]3CC[C@H](NC(=O)OC(C)C)CC3)s2)c(NS(=O)(=O)C(C)(C)C)c1 [Example 19, isopropyl trans-N-[3-(tert-butylsulfonylamino)-4-[2-[4-(isopropoxycarbonylamino)cyclohexyl]thiazol-5-yl]phenyl]carbamate]	> 25000	–
740	–	CC(C)OC(=O)Nc1ccc(-c2nnc([C@H]3CC[C@H](NC(=O)OC(C)C)CC3)s2)c(S(=O)(=O)C(C)C)c1 [Example 25, isopropyl trans-N-[4-[5-[4-(isopropoxycarbonylamino)cyclohexyl]-1,3,4-thiadiazol-2-yl]-3-isopropylsulfonyl-phenyl]carbamate]	> 25000	–

The next lines start with the compound.

SMILES	IC50 (Daudi cells; Homo sapiens, 72 h) [nM]	IC50 (Daudi cells) [nM]	IC50 (WI-38 cells; Homo sapiens, 72 h) [nM]	IC50 (WI-38 cells) [nM]
C=CC(=O)N=S(=O)(c1cc(NC(=O)OC(C)C)ccc1-c1cnc([C@H]2CC[C@H](NC(=O)OC(C)C)CC2)s1)C(C)C (relative stereo) [Example 4, isopropyl trans-N-[4-[2-[4-(isopropoxycarbonylamino)cyclohexyl]thiazol-5-yl]-3-(isopropyl-N-prop-2-enoyl-sulfonimidoyl)phenyl]carbamate]	1010	–	7220	–
CC(C)OC(=O)Nc1ccc(-c2nnc([C@H]3CC[C@H](NC(=O)OC(C)C)CC3)s2)c(S(=O)(=O)NC(C)(C)C)c1 [Example 5, isopropyl trans-N-[3-(tert-butylsulfamoyl)-4-[5-[4-(isopropoxycarbonylamino)cyclohexyl]-1,3,4-thiadiazol-2-yl]phenyl]carbamate]	1160	–	> 25000	–
CC(C)OC(=O)Nc1ccc(-c2cnc(C34CC(NC(=O)OC(C)C)(C3)C4)s2)c(S(=O)(=O)NC(C)(C)C)c1 [Example 7, isopropyl (3-(5-(4-(isopropoxycarbonyl)amino-2-(N-(tert-butyl)sulfamoyl)phenyl)thiazol-2-yl)bicyclo[1.1.1]pent-1-yl)carbamate]	2590	–	> 25000	–
CC(C)OC(=O)Nc1ccc(-c2cnc(N3CC4C(C3)C4NC(=O)OC(C)C)s2)c(S(=O)(=O)NC(C)(C)C)c1 (stereo not drawn) [Example 9, isopropyl endo-N-[3-(tert-butylsulfamoyl)-4-[2-[6-(isopropoxycarbonylamino)-3-azabicyclo[3.1.0]hex-3-yl]thiazol-5-yl]phenyl]carbamate]	–	2060	–	> 25000
CC(C)OC(=O)N[C@H]1CC[C@H](c2ncc(-c3ccc(NC(=O)N4CCc5ccccc5C4)cc3S(=O)(=O)NC(C)(C)C)s2)CC1 [Example 12, isopropyl trans-N-[4-[5-[2-(tert-butylsulfamoyl)-4-(3,4-dihydro-1H-isoquinoline-2-carbonylamino)phenyl]thiazol-2-yl]cyclohexyl]carbamate]	20	–	> 25000	–
CC(C)OC(=O)N[C@H]1CC[C@H](c2ncc(-c3ccc(NC(=O)OCC4CC4)cc3S(=O)(=O)NC(C)(C)C)s2)CC1 [Example 16, isopropyl trans-N-[4-[5-[2-(tert-butylsulfamoyl)-4-(cyclopropylmethoxycarbonylamino)phenyl]thiazol-2-yl]cyclohexyl]carbamate]	490	–	> 25000	–
CC(C)OC(=O)N[C@H]1CC[C@H](c2ncc(-c3ccc(NC(=O)C4CC4c4ccccc4)cc3S(=O)(=O)NC(C)(C)C)s2)CC1 (stereo partly drawn) [Example 18, isopropyl trans-N-[4-[5-[2-(tert-butylsulfamoyl)-4-[(2-phenylcyclopropanecarbonyl)amino]phenyl]thiazol-2-yl]cyclohexyl]carbamate]	90	–	> 25000	–
CC(C)OC(=O)Nc1ccc(-c2cnc(C3CC4CCC(C3)C4NC(=O)OC(C)C)s2)c(S(=O)(=O)NC(C)(C)C)c1 (stereo not shown) [Example 21, isopropyl N-[3-(tert-butylsulfamoyl)-4-[2-[8-(isopropoxycarbonylamino)-3-bicyclo[3.2.1]octyl]thiazol-5-yl]phenyl]carbamate]	440	–	> 25000	–
CC(C)OC(=O)N[C@H]1CC[C@H](c2ncc(-c3ccc(Nc4cc[nH]n4)cc3S(=O)(=O)NC(C)(C)C)s2)CC1 [Example 22, isopropyl trans-(4-(5-(4-((1H-pyrazol-3-yl)amino)-2-(N-(tert-butyl)sulfamoyl)phenyl)thiazol-2-yl)cyclohexyl)carbamate]	35	–	23300	–
CC(C)OC(=O)N[C@H]1CC[C@H](c2ncc(-c3ccc(NC(=O)NCc4ccccc4)cc3P(C)(C)=O)s2)CC1 [Example 26, isopropyl trans-(4-(5-(4-(3-benzylureido)-2-(dimethylphosphoryl)phenyl)thiazol-2-yl)cyclohexyl)carbamate]	130	–	> 25000	–
COc1ccc(Nc2ccc(-c3cnc([C@H]4CC[C@H](NC(=O)OC(C)C)CC4)s3)c(S(=O)(=O)C3COC3)c2)cn1 [Example 113, isopropyl trans-N-[4-[5-[4-[(6-methoxy-3-pyridyl)amino]-2-(oxetan-3-ylsulfonyl)phenyl]thiazol-2-yl]cyclohexyl]carbamate]	16	–	–	–
Cc1cc(Nc2ccc(-c3cnc([C@H]4CC[C@H](NC(=O)OC(C)C)CC4)s3)c(S(=O)(=O)C3CC3)c2)n(C)n1 [Example 116, isopropyl trans-(4-(5-(2-(cyclopropylsulfonyl)-4-((1,3-dimethyl-1H-pyrazol-5-yl)amino)phenyl)thiazol-2-yl)cyclohexyl)carbamate]	4	–	–	–
